Each structure is given as a SMILES string.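 Grown in 96-well plates, cells were treated for 48 hours with each compound at five concentrations. Insufficient inhibition: endpoint recorded as highest concentration tested. TGI: total growth inhibition.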 Where only a bound is given, the exact number is not on record here.

What all share (test): growth of human tumour cells (NCI), 48 h
Test [1] has as its system MDA-MB-435.
Test [2] relates to MCF7 breast.
The test system of test [3] is 786-0 renal.
For test [4], the system named is NCI-H460 lung.
Test [5] deals with T-47D breast.
The test system of test [6] is UO-31 renal.
Test [7] has as its system MOLT-4 leukemia.
For test [8], the system named is NCI-H522 lung.
Test [9] concerns DU-145 prostate.
Test [10] has as its system HT29 colon.
Test [11] concerns UACC-62 melanoma.
Test [12] deals with SK-OV-3 ovarian.
Test [13] concerns KM12 colon.
Test [14] has as its system NCI/ADR-RES ovarian.
Test [15] concerns A498 renal.
Test [16] deals with OVCAR-3 ovarian.
Test [17] relates to UACC-257 melanoma.
In test [18] the test system is HCT-15 colon.
Test [19] concerns PC-3 prostate.
The subject of test [20] is SNB-19 CNS.

On to `CCOC(=O)[C@@H]1ON2O[C@H](OC3CCCCC3c3ccccc3)C[C@H]3OC(=O)[C@@H]1C32` (some centres undefined), for which the TGI in test [1], in test [2], in test [3], in test [4], in [5] and in test [6] was more than 100 µM throughout. Besides, the TGI in test [7], in [8], in test [9], in test [10], in [11] and in [12] was more than 100 µM throughout. Further, the TGI in test [13], in [14], in [15], in [16], in [17] and in [18] was more than 100 µM throughout.
With `CCOC(=O)CCC(NC(=O)C(N)c1ccc([N+](=O)[O-])cc1)C(=O)NC(CCC(=O)OCC)C(=O)OCC` (centres undefined), the TGI in test [19], in test [2], in test [3], in [4], in test [20] and in test [5] was more than 100 µM each time. In addition, the TGI in test [6], in test [7], in test [10], in test [11], in [13] and in test [15] was more than 100 µM in each case. Besides, the TGI in test [17] and in test [18] was more than 100 µM throughout.
On to `CCOC(=O)N(C)C(=C(F)F)C(F)(F)F`, for which the TGI in [19] was more than 100 µM; in test [1], 46.2 µM; in test [2], more than 100 µM; in test [3], 72 µM; in test [4], more than 100 µM; in [5] it was 92.1 µM. Also, the TGI was more than 100 µM in [6]; 51.6 µM in [7]; more than 100 µM in [9]; 78.2 µM in test [10]; more than 100 µM in [12]; more than 100 µM in [13]. Further, the TGI in test [14] is more than 100 µM; in [16], more than 100 µM; in test [17], more than 100 µM; in test [18], 34.3 µM.
For `COc1cccc(C=C2N=C(c3ccccc3)N(n3c(-c4ccccc4)nc4ccccc4c3=O)C2=O)c1`, the TGI in test [19], in test [1], in [2], in [3], in test [4] and in [20] was more than 100 µM each time. In addition, the TGI was more than 100 µM in test [5]; more than 100 µM in [6]; more than 100 µM in test [7]; 62.1 µM in [8]; more than 100 µM in test [9]; more than 100 µM in test [10]. Further, the TGI in test [11], in [12], in test [13], in [15], in test [17] and in [18] was more than 100 µM each time.
`O=C1NC(=S)NC(=O)C1=Cc1ccc(-c2ccccc2)cc1`: the TGI in test [19], in [1], in [2], in [3], in test [4] and in test [20] was more than 100 µM each time. The TGI in test [5], in test [6], in test [7], in [9], in test [10] and in [11] was more than 100 µM throughout. Also, the TGI in [12], in [13], in test [14], in test [16], in [17] and in test [18] was more than 100 µM throughout.
Consider `Cc1cc(S(=O)(=O)NC2=NCCN2Cc2ccccc2)c(S)cc1Cl`, for which the TGI in [19], in [1], in test [2], in test [3], in [4] and in [20] was more than 100 µM in each case. The TGI in test [7], in test [8], in test [9], in [10], in test [11] and in test [12] was more than 100 µM each time. In addition, the TGI in [13], in [14], in test [16], in [17] and in test [18] was more than 100 µM each time.
In the case of `COc1cc(/C=N/c2ccccn2)cc(OC)c1OC`, the TGI was 58.6 µM in test [1]; more than 100 µM in [2]; more than 100 µM in test [3]; more than 100 µM in [4]; more than 100 µM in test [20]; more than 100 µM in test [5]. The TGI in test [6], in [7], in test [8], in test [9], in test [10] and in test [11] was more than 100 µM in each case. For the same compound, the TGI in [12], in test [13], in test [14], in test [15], in [16] and in [17] was more than 100 µM throughout. The TGI in test [18] is more than 100 µM.
In the case of `C[C@@H]1CCC2C(C)(C)C(/C=C\C=O)C3(C)OC213` (some centres undefined), the TGI in test [19], in [1], in test [2], in [3], in test [4] and in test [20] was more than 100 µM each time. For the same compound, the TGI in [6] was more than 100 µM; in test [7], 86.9 µM; in test [8], more than 100 µM; in test [9], more than 100 µM; in test [10], 62 µM; in test [11], more than 100 µM. In addition, the TGI in test [12], in [13], in test [14], in [15], in test [16] and in test [17] was more than 100 µM each time. Besides, the TGI in [18] is more than 100 µM.
Turning to `CSC1=C(C(=O)Nc2ccc(C)cc2)C(N)=NC1=O`, the TGI in test [1], in [2], in [3], in test [4], in test [20] and in [5] was more than 100 µM in each case. The TGI in test [6], in [7], in test [9], in [10], in [11] and in test [12] was more than 100 µM in each case. Besides, the TGI in test [13], in test [14], in test [17] and in [18] was more than 100 µM throughout.
With `NS(=O)(=O)c1nnc(NC(=O)c2cccc([N+](=O)[O-])c2)s1`, the TGI in test [1], in test [2], in [3], in test [4], in test [20] and in test [5] was more than 100 µM each time. For the same compound, the TGI in test [6], in test [7], in [8], in test [9], in test [11] and in test [12] was more than 100 µM throughout. The TGI in [13], in test [14], in test [16], in test [17] and in test [18] was more than 100 µM each time.
Consider `CN(C)/C=N\c1nncc2[nH]cnc12`, for which the TGI in test [19], in test [1], in test [2], in test [3], in test [5] and in test [6] was more than 100 µM throughout. The TGI in test [7], in test [8], in test [10], in [11], in [12] and in test [13] was more than 100 µM throughout. For the same compound, the TGI in test [14], in [15], in test [16], in [17] and in [18] was more than 100 µM in each case.
Turning to `CCCCOCOc1ccccc1P1(=O)COc2ccccc2OC1`, the TGI in test [19], in test [1], in [2], in [3], in [4] and in test [20] was more than 100 µM each time. Further, the TGI in test [5], in [6], in test [9], in test [10], in test [11] and in test [12] was more than 100 µM in each case. For the same compound, the TGI in test [13], in test [14], in [16], in test [17] and in [18] was more than 100 µM in each case.
Take `CCc1[nH]c(=O)c2oc3cc4ccccc4cc3c2c1C(=O)O`: the TGI in test [19], in test [3], in test [4], in test [20], in test [6] and in [8] was more than 10 µM in each case. Moreover, the TGI in test [9], in [10], in test [13], in test [14], in test [16] and in [17] was more than 10 µM each time. This compound returned a TGI in test [18] of more than 10 µM.
As to `COC(=O)C1=C(OC(=O)/C=C/c2ccc(Cl)cc2)C(C(=O)OC)[C@]2(O)[C@@H](C(=O)OC)[C@H]1C[C@@H](c1ccccc1)[C@@H]2C(=O)OC` (some centres undefined), the TGI was more than 47.6 µM in [19]; more than 100 µM in test [1]; more than 25.2 µM in test [3]; more than 100 µM in test [4]; more than 95.9 µM in test [20]; more than 100 µM in [5]. Besides, the TGI was more than 30.9 µM in test [6]; more than 100 µM in [7]; 5.83 µM in test [8]; more than 100 µM in test [9]; more than 100 µM in [10]; more than 100 µM in test [11]. Also, the TGI in test [12] was more than 100 µM; in test [13], more than 100 µM; in test [14] it was more than 28.8 µM; in test [15], 44.2 µM; in test [16], more than 100 µM; in test [17], more than 100 µM. In [18], this compound gave a TGI of more than 47.1 µM.
For the compound `CCCCCCSCC/C(C)=N\OC`, the TGI in test [19], in test [1], in test [2], in [3], in test [4] and in [20] was more than 100 µM throughout. For the same compound, the TGI in [6], in test [7], in [8], in [9], in [10] and in test [11] was more than 100 µM each time. The TGI in test [12], in test [13], in test [14], in test [15], in test [16] and in test [17] was more than 100 µM throughout. In addition, the TGI in test [18] is more than 100 µM.
In the case of `[N-]=[N+]=Nc1ccc2c(c1)Sc1ccccc1N2CCCCN1CCN(Cc2ccc(C(=O)c3ccc(CSCC(N)C(=O)O)cc3)cc2)CC1` (centres undefined), the TGI in [19] is more than 100 µM; in [1], 3.16 µM; in [2] it was 54.4 µM; in test [3], 24.4 µM; in test [4] it was more than 100 µM; in [6], more than 100 µM. The TGI was more than 100 µM in [7]; 33.7 µM in test [8]; 67.7 µM in test [9]; 30.7 µM in [10]; 24.4 µM in test [11]; more than 100 µM in test [12]. The TGI is 7.91 µM in test [13]; 37.7 µM in [15]; more than 100 µM in test [16]; 69.2 µM in test [17]; 30.4 µM in test [18].

For the origin of these results see PubChem BioAssay (NCI).
